Data as given in article PMC5470052, “Brain Activation by H1 Antihistamines Challenges Conventional View of Their Mechanism of Action in Motion Sickness: A Behavioral, c-Fos and Physiological Study in Suncus murinus (House Musk Shrew)” (Frontiers in Physiology, 2017).

Test system: T1, histamine H1 receptor
T1 construct: gene HRH1; native receptor in isolated ileal segments
Assay: organ bath, antagonism of histamine-induced contraction of isolated ileum; double reciprocal analysis
Design: species or system Suncus murinus

For `O=C(O)COCCN1CCN(C(c2ccccc2)c2ccc(Cl)cc2)CC1` (stereo not shown) [cetirizine], the Kb was 8.4 pKb.
